Literature values in patent US20130267590A1, “RETIGABINE COMPOSITIONS” (Dr. Reddy's Laboratories Limited, priority 2011, published 2013).
Structures can show the parent of a compound that is named as a salt.

Legend:
[1] = test system: KCNQ (Kv7.2 to 7.5) family of ion channels; conditions: in vitro

For `CCOC(=O)Nc1ccc(NCc2ccc(F)cc2)cc1N` [dihydrochloride salt of retigabine], the storage stability (medium to long-term storage at −18° C.) is listed as “unstable”.

For `CCOC(=O)Nc1ccc(NCc2ccc(F)cc2)cc1N` [retigabine, ethyl 2-amino-4-(4-fluorobenzylamino) phenylcarbamate], the “effect on transmembrane potassium currents mediated by KCNQ channels” value [1] is given as “enhances transmembrane potassium currents” and the oxidation stability (contact with air) is given as “oxidize upon contact with air”.
